{"source": "patent US20250328351A1", "about": "“CARBONIC ANHYDRASE INHIBITORS AND ANTIBIOTICS AGAINST MULTIDRUG RESISTANT BACTERIA” (Purdue Research Foundation, priority 2018, published 2025)", "key": {"Caco-2 cells": {"tested_on": "Caco-2 cells", "experiment": "In vitro cytotoxicity, MTS assay", "settings": "concentration up to 128 μg/mL; two hours incubation", "experimental": "Method: Compounds AS005H, AS005J, AS004B, AS005K, AS005A and 005D were assayed (at concentrations of 64 and 128 μg/mL) against a human colorectal adenocarcinoma (Caco-2) cell to determine the potential toxic effect to mammalian cells in vitro. Briefly, cells were cultured in Dulbecco's Modified Eagle Medium (DMEM) supplemented with 20% fetal bovine serum (FBS), non-essential amino acids (1×), penicillin-streptomycin at 37° C. with CO2 (5%). Control cells received DMSO alone at a concentration equal to that in drug-treated cell samples. The cells were incubated with the compounds (in triplicate) in a 96-well plate at 37° C. with CO2 (5%) for two hours. The assay reagent MTS 3-(4,5-dimethylthiazol-2-yl)-5-(3-carboxymethoxyphenyl)-2-(4-sulfophenyl)-2H-tetrazolium) (Promega, Madison, WI, USA) was subsequently added and the plate was incubated for four hours. Absorbance readings (at OD490) were taken using a kinetic microplate reader (Molecular Devices, Sunnyvale, CA, USA). The quantity of viable cells after treatment with each compound was expressed as a percentage of the viability of DMSO-treated control cells (average of triplicate wells±standard deviation). The toxicity data was analyzed via a two-way ANOVA, with post hoc Dunnet's multiple comparisons test (P<0.05), utilizing GraphPad Prism 6.0 (GraphPad Software, La Jolla, CA).\nPercent viable mammalian cells (measured as average absorbance ratio (test agent relative to DMSO) for cytotoxicity analysis of AS005H, AS005J, AS004B, AS005K, AS005A and 005D compounds (tested in triplicate) at 64 and 128 μg/mL against Caco-2 cells using the MTS 3-(4,5-dimethylthiazol-2-yl)-5-(3-carboxymethoxyphenyl)-2-(4-sulfophenyl)-2H-tetrazolium) assay. Dimethyl sulfoxide (DMSO) was used as a negative control to determine a baseline measurement for the cytotoxic impact of each compound. The absorbance values represent an average of a minimum of three samples analyzed for each compound. Error bars represent standard deviation values for the absorbance values. A two-way ANOVA, with post hoc Dunnet's multiple comparisons test, determined statistical difference (denoted by the asterisk) (P<0.05) between the values obtained for each compound and DMSO (negative control, used as solvent for the compounds)."}, "[1]": {"tested_on": "Enterococcus faecium Patient #2-1 - NR-31909", "experiment": "MIC, broth microdilution (CLSI)", "format": "cell-based", "settings": "Enterococcus faecium, TSB, read-out: MIC"}, "[2]": {"tested_on": "Enterococcus faecium E417 - HM-965", "experiment": "MIC, broth microdilution (CLSI)", "format": "cell-based", "settings": "Enterococcus faecium, E417HM965, Table 1; TSB; read-out: MIC"}, "[3]": {"tested_on": "Enterococcus fecalis Strain SF 24397 NR31970", "experiment": "MIC, broth microdilution (CLSI)", "format": "cell-based", "settings": "Enterococcus, TSB, read-out: MIC"}, "[4]": {"tested_on": "Mutant-14 of Enterococcus fecalis NR 31975", "experiment": "microbe, parasite or virus in culture", "format": "cell-based"}}, "note": "Read-outs that look alike come from different tables or passages of the source.", "data": [{"molecule": "CC(C)=CC(=O)Nc1nnc(S(N)(=O)=O)s1", "note": "[CAI0016, 3-Methyl-N-(5-sulfamoyl-1,3,4-thiadiazol-2-yl)but-2-enamide]", "values": [{"measurement": "toxicity to Caco-2 cells (percent viable cells, MTS)", "setting": "Caco-2 cells", "value": "non-toxic"}, {"measurement": "MIC", "setting": "[1]; Table 1", "value": 0.5, "unit": "µg/mL"}, {"measurement": "MIC", "setting": "[1]; Table 7", "value": 0.25, "unit": "µg/mL"}, {"measurement": "MIC", "setting": "[2]", "value": 0.25, "unit": "µg/mL"}, {"measurement": "MIC", "setting": "[3]; Table 1", "value": 0.5, "unit": "µg/mL"}, {"measurement": "MIC", "setting": "[3]; Table 7", "value": 0.25, "unit": "µg/mL"}, {"measurement": "MIC", "setting": "[4]", "value": 4, "unit": "µg/mL"}]}]}
